Like-named read-outs stand apart in the source and are kept apart here.
Target: T1, Human AMPK α2β2γ1 (Homo sapiens, UniProt O43741+P54646)
T1 construct: The full length cDNAs of human AMPK β2 (NM_005399.3) and human AMPK α2 (NM_006252.3); The full length cDNAs of human AMPK β2 (NM_005399.3); the full length cDNA of human AMPK γ1 (NM_002733.3) had been inserted into pET28b(+); 6xHis (N); made in house; host or cells: Escherichia coli BL21 CodonPlus (DE3)-RTL (AMPK); BL21 Star (DE3) (CaMKKβ)
Assay: Test Example 2: evaluation of an activator for AMP-activated protein kinase (AMPK), human AMPK α2β2γ1 phosphorylated with CaMKK2, FL-Peptide 7 mobility shift
Type: biochemical
Details: for EC150 (compound concentration showing 150% relative to the control (100%)): human AMPK α2β2γ1, 0.2 mM ATP final, 25° C., 2 hours; for Emax: read-out: Emax (maximum rate of increase in activity within the measurement range)
Method: The full length cDNAs of human AMPK β2 (NM_005399.3) and human AMPK α2 (NM_006252.3) were inserted into the MCS1 and MCS2 of the pETDuet-1 vector to prepare a human AMPK β2 and human AMPK α2 (6× His tag at the 5′ terminus) expressing plasmid. The plasmid was cotransfected with an expression plasmid, in which the full length cDNA of human AMPK γ1 (NM_002733.3) had been inserted into pET28b(+), into BL21 CodonPlus (DE3)-RTL to obtain an expression strain. The expression strain was cultured in TB medium, followed by induction with 0.5 mM IPTG, and cultured at 25° C. for 3 hours and then harvested.
An expression vector, in which the full length cDNA of human CAMKK β (NM_172226.1) had been inserted into pGEX-6P-3, was transfected into BL21 Star (DE3). The expression strain was cultured in TB medium, followed by induction with 0.5 mM IPTG, and cultured at 25° C. for 3 hours and then harvested.
Thus, phosphorylation treatment was carried out as pretreatment.
Human AMPK α2β2γ1 in an amount to give a conversion rate of approximately 10% by reaction for 2 hours, and CaMKK2 in an amount capable of sufficiently imparting activity to AMPK for one hour were mixed in a buffer solution consisting of a 50 mM HEPES-NaOH buffer solution (pH 7.0), 100 mM NaCl, 5 mM magnesium chloride, 0.1% bovine serum albumin, 0.2 mM sodium orthovanadate(V), 1 mM ethylene glycol-bis(2-aminoethyl ether)-N,N,N′,N′-tetraacetic acid (EGTA), 5 mM disodium β-glycerophosphate, 1 mM dithiothreitol and 0.2 mM ATP, and the obtained liquid was left to stand at 25° C. for 1 to 1.5 hours to sufficiently phosphorylate AMPK.
The obtained liquid was left to stand for 10 minutes.
The obtained liquid was allowed to react at 25° C. for 2 hours, and 10 μl of 20 mM EDTA was then added thereto to stop the reaction.
To detect phosphorylated fluorescent substrates, the reaction liquid was applied to a measuring device, LabChip EZ Reader II manufactured by Caliper Life Science, Inc., for detecting fluorescence by using differences in mobility due to differences in charge. The setting conditions for the device were pressure, −1.5 PSI; upstream voltage, −2250 V; downstream voltage, −400 V; post sample buffer sip time, 40 seconds; final delay, 120 seconds; and peak order, Product First.
A conversion rate was calculated from the peak heights of the resulting substrate and product. The conversion rate when not containing a compound was used as a control, and a concentration dependent curve was made by plotting the rate of increase in activity to the control at each concentration of a compound.

[1] = human AMPK α2β2γ1, relative to control (100%)

T1 sequence (P54646 whole entry): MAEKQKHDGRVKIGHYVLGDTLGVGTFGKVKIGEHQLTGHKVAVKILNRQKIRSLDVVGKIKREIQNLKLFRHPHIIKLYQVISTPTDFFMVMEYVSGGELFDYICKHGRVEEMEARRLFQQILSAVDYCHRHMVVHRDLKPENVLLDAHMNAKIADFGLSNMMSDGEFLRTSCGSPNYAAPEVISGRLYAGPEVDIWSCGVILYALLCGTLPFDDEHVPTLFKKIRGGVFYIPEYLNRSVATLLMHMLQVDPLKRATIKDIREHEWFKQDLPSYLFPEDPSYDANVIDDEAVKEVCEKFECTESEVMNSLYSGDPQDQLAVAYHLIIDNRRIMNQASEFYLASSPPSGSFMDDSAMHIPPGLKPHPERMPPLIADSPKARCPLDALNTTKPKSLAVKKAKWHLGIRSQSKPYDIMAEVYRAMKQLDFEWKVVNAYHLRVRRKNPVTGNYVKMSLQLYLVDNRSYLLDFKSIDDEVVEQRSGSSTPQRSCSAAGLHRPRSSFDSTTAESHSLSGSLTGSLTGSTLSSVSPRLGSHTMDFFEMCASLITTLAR
T1 sequence (O43741 whole entry): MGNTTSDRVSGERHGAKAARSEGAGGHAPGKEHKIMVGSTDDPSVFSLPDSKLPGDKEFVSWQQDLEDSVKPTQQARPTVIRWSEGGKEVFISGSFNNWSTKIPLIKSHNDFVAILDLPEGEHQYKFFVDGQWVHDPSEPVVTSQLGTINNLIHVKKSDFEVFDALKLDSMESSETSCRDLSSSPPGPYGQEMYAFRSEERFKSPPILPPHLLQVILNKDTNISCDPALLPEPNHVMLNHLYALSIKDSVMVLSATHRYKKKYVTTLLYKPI
T1 sequence (P54619 whole entry partner): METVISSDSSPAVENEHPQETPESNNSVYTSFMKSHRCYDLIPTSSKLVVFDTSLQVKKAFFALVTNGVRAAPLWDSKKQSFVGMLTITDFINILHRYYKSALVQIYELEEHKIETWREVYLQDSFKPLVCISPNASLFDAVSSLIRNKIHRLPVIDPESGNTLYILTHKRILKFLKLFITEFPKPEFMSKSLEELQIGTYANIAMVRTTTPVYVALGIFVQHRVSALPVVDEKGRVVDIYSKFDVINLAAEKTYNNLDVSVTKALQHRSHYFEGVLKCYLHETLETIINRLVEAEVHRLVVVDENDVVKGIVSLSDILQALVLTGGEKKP

Structure (SMILES)	EC150 (compound concentration showing 150% relative to the control (100%)) [nM]	Emax [1] [%]	Emax (maximum rate of increase in activity within the measurement range) [1] [%]	Emax [%]
O=C(CO)N1CC=C(c2ccc(-c3nc4cc(O[C@@H]5CO[C@H](CO)C5)[nH]c4cc3F)cc2)CC1 [Compound I-2-33]	2.5	511	–	–
O[C@@H]1CO[C@H]2[C@@H]1OC[C@H]2Oc1cc2nc(-c3ccc(C4(O)CCC4)cc3)c(F)cc2[nH]1 [Compound I-2-34]	20	495	–	–
N#Cc1cc2[nH]c(O[C@@H]3CO[C@H]4[C@@H]3OC[C@H]4O)cc2nc1-c1ccc(N2CCOCC2)cc1F [Compound I-2-42]	48	481	–	–
N#Cc1cc2[nH]c(O[C@@H]3CO[C@H]4[C@@H]3OC[C@H]4O)cc2nc1-c1ccc(-c2ccccc2)cc1 [Compound I-2-45]	19	492	–	–
N#Cc1c(O[C@@H]2CO[C@H]3[C@@H]2OC[C@H]3O)[nH]c2cc(Cl)c(-c3ccc(-c4cnn(CCO)c4)cc3)nc12 [Compound I-2-46]	77	510	–	–
O[C@@H]1CO[C@H]2[C@@H]1OC[C@H]2Oc1cc2nc(-c3ccc(C4CCCCO4)cc3)c(F)cc2[nH]1 (stereo partly drawn) [Compound I-2-57]	10	484	–	–
O[C@@H]1CO[C@H]2[C@@H]1OC[C@H]2Oc1cc2nc(-c3ccc([C@@H]4C[C@@H](O)[C@@H](O)CO4)cc3)c(Cl)cc2[nH]1 [Compound I-2-61-a]	6.4	442	–	–
O[C@@H]1CO[C@H]2[C@@H]1OC[C@H]2Oc1cc2nc(-c3ccc([C@H]4C[C@H](O)[C@H](O)CO4)cc3)c(F)cc2[nH]1 [Compound I-2-61-b]	6.4	442	–	–
O[C@@H]1CO[C@H]2[C@@H]1OC[C@H]2Oc1cc2nc(-c3ccc(C4CCCO4)cc3)c(F)cc2[nH]1 (stereo partly drawn) [Compound I-2-68]	26	382	–	–
Cn1ncc2cc(-c3nc4cc(O[C@@H]5CO[C@H]6[C@@H]5OC[C@H]6O)[nH]c4cc3F)ccc21 [Compound I-2-69]	58	521	–	–
Cn1c(-c2nc3cc(O[C@@H]4CO[C@H]5[C@@H]4OC[C@H]5O)[nH]c3cc2F)cc2ccccc21 [Compound I-2-70]	38	511	–	–
COc1ccc(-c2nc3cc(O[C@@H]4CO[C@H]5[C@@H]4OC[C@H]5O)[nH]c3cc2F)cc1 [Compound I-2-71]	89	446	–	–
COc1nc(N2CC[C@@H](O)C2)ccc1-c1nc2cc(O[C@@H]3CO[C@H]4[C@@H]3OC[C@H]4O)[nH]c2cc1F [Compound I-2-78]	7.1	490	–	–
CS(=O)(=O)N1C2C=C(c3ccc(-c4nc5cc(O[C@@H]6CO[C@H]7[C@@H]6OC[C@H]7O)[nH]c5cc4F)cc3)CC1CC2 (stereo partly drawn) [Compound I-3-4]	30	–	568	–
O[C@@H]1CO[C@H]2[C@@H]1OC[C@H]2Oc1cc2nc(-c3ccc(OCCCN4CCOCC4)cc3)c(F)cc2[nH]1 [Compound I-3-6]	74	475	–	–
CC(=O)Nc1nc(-c2ccc(-c3nc4cc(O[C@@H]5CO[C@H]6[C@@H]5OC[C@H]6O)[nH]c4cc3F)cc2)cs1 [Compound I-3-10]	7.9	391	–	–
CS(C)(=O)=Nc1ccc(-c2ccc(-c3nc4cc(O[C@@H]5CO[C@H]6[C@@H]5OC[C@H]6O)[nH]c4cc3F)cc2)nc1 [Compound I-3-12]	4.2	396	–	–

Structure (SMILES)	EC150 (compound concentration showing 150% relative to the control (100%)) [nM]	Emax [1] [%]	Emax (maximum rate of increase in activity within the measurement range) [1] [%]	Emax [%]
O[C@@H]1CO[C@H]2[C@@H]1OC[C@H]2Oc1cc2nc(-c3ccc4scnc4c3)c(F)cc2[nH]1 [Compound I-3-14]	150	430	–	–
N#Cc1cc2[nH]c(O[C@@H]3CO[C@H]4[C@@H]3OC[C@H]4O)cc2nc1NC1CCc2cc(F)cc(F)c21 (stereo partly drawn) [Compound I-3-17]	40	492	–	–
O[C@@H]1CO[C@H]2[C@@H]1OC[C@H]2Oc1cc2nc(NC3CCc4cc(F)cc(F)c43)c(C(F)(F)F)cc2[nH]1 (stereo partly drawn) [Compound I-3-19]	120	543	–	–
O[C@@H]1CO[C@H]2[C@@H]1OC[C@H]2Oc1cc2nc(-c3ccc(-c4ccsc4)cc3)c(F)cc2[nH]1 [Compound I-3-23]	5	510	–	–
O[C@@H]1CO[C@H]2[C@@H]1OC[C@H]2Oc1cc2nc(-c3ccsc3)c(F)cc2[nH]1 [Compound I-3-24]	340	315	–	–
Cn1cc(-c2ccc(-c3nc4cc(O[C@@H]5CO[C@H]6[C@@H]5OC[C@H]6O)[nH]c4cc3F)cc2)cn1 [Compound I-3-25]	6.6	493	–	–
COc1nc(N2CCCC2)ccc1-c1nc2cc(O[C@@H]3CO[C@H]4[C@@H]3OC[C@H]4O)[nH]c2cc1F [Compound I-3-27]	12	633	–	–
COc1cc(F)c(-c2nc3cc(O[C@@H]4CO[C@H]5[C@@H]4OC[C@H]5O)[nH]c3cc2F)c(F)c1 [Compound I-3-28]	87	430	–	–
O=C(CO)NCCCOc1ccc(-c2nc3cc(O[C@@H]4CO[C@H]5[C@@H]4OC[C@H]5O)[nH]c3cc2F)cc1 [Compound I-3-31]	55	505	–	–
O[C@@H]1CO[C@H]2[C@@H]1OC[C@H]2Oc1cc2nc(-c3ccc(N4CCOCC4)cc3F)c(C(F)(F)F)cc2[nH]1 [Compound I-3-39]	200	491	–	–
CS(C)(=O)=Nc1ccc(-c2ccc(-c3nc4cc(O[C@@H]5CO[C@H]6[C@@H]5OC[C@H]6O)[nH]c4cc3F)cc2)cc1 [Compound I-3-40]	0.91	–	–	491
COc1cc(C2=CCOCC2)ccc1-c1nc2cc(O[C@@H]3CO[C@H]4[C@@H]3OC[C@H]4O)[nH]c2cc1F [Compound I-3-41]	31	500	–	–
CS(=N)(=O)c1ccc(-c2ccc(-c3nc4cc(O[C@@H]5CO[C@H]6[C@@H]5OC[C@H]6O)[nH]c4cc3F)cc2)cc1 (stereo partly drawn) [Compound I-3-43]	0.84	538	–	–
CN=S(C)(=O)c1ccc(-c2ccc(-c3nc4cc(O[C@@H]5CO[C@H]6[C@@H]5OC[C@H]6O)[nH]c4cc3F)cc2)cc1 (stereo partly drawn) [Compound I-4-1]	1.4	496	–	–
CS(C)(=O)=Nc1ccc(-c2ccc(-c3nc4cc(O[C@@H]5CO[C@H]6[C@@H]5OC[C@H]6O)[nH]c4cc3F)c(F)c2)cc1 [Compound I-4-5]	3.2	510	–	–
CS(C)(=O)=NC1CC=C(c2ccc(-c3nc4cc(O[C@@H]5CO[C@H]6[C@@H]5OC[C@H]6O)[nH]c4cc3F)cc2)CC1 (stereo partly drawn) [Compound I-4-17]	2.9	511	–	–

From patent publication US9980948B2, “Azaindole derivative having AMPK-activating activity” (Shionogi & Co., Ltd., priority 2014, dated 2018)
